Results taken from PubChem BioAssay AID194 (DTP/NCI, 2004).
“And” between values parts separate entries of the source, which are not always exact repeats. Equal entries are not always repeated. Results filed as inconclusive are left out.

Tested on: BDF1 mice, B16 melanoma s.c., survival/tumor T/C
Test: NCI In Vivo Anticancer Drug Screen. Data for tumor model B16 Melanoma (subcutaneous) in B6D2F1 (BDF1) mice
Protocol: The antitumor activity of compounds was measured in mice bearing transplantable tumors. Survival or tumor size were measured and the results are expressed as the measurement made in the treated group (T) divided by the measurement made in the vehicle treated control group (C). The tumor model used in this assay is B16 Melanoma (subcutaneous) in B6D2F1 (BDF1) mice

[1] = endpoint: median survival time, dose: 5.0 mg/kg/injection, schedule: Q01DX009 (ip), vehicle: saline, higher = longer survival

Which results are given for `O=NN(CCF)C(=O)NC1C(O)CCCC1O` (stereo not given)?
T/C (endpoint: median survival time, dose: 3.11 mg/kg/injection, schedule: Q01DX007 (ip), vehicle: water, higher = longer survival): 98 % of control; T/C (endpoint: median survival time, dose: 5.18 mg/kg/injection, schedule: Q01DX007 (ip), vehicle: water, higher = longer survival): 103 % of control; T/C (endpoint: median survival time, dose: 8.64 mg/kg/injection, schedule: Q01DX007 (ip), vehicle: water, higher = longer survival): 112 % of control; T/C (endpoint: median survival time, dose: 14.4 mg/kg/injection, schedule: Q01DX007 (ip), vehicle: water, higher = longer survival): 123 % of control

`COC(=O)C(N)CCCCNc1ccc2c(cc1=O)C(NC(C)=O)CCc1cc(OC)c(OC)c(OC)c1-2` (stereo not given) was tested. Which T/C (endpoint: median survival time, dose: 53.0 mg/kg/injection, schedule: Q01DX009 (ip), vehicle: saline, higher = longer survival) did it give?
The T/C was 118 % of control.

And the T/C (endpoint: median survival time, dose: 80.0 mg/kg/injection, schedule: Q01DX009 (ip), vehicle: saline, higher = longer survival)?
The T/C was 90 % of control.

And the T/C (endpoint: median survival time, dose: 120.0 mg/kg/injection, schedule: Q01DX009 (ip), vehicle: saline, higher = longer survival)?
Its T/C is 106 % of control.

And the T/C (endpoint: median survival time, dose: 180.0 mg/kg/injection, schedule: Q01DX009 (ip), vehicle: saline, higher = longer survival)?
Its T/C is 90 % of control.

`CCCCC(=O)OCC(=O)[C@]1(O)Cc2c(O)c3c(c(O)c2[C@@H](OC2CC(NC(=O)C(F)(F)F)C(O)C(C)O2)C1)C(=O)c1c(OC)cccc1C3=O` (stereo not given in full) was tested. Which T/C (endpoint: median survival time, dose: 9.0 mg/kg/injection, schedule: Q01DX008 (ip), vehicle: distilled water + Tween-80, higher = longer survival) did it give?
The T/C was 104 % of control.

And the T/C (endpoint: median survival time, dose: 13.0 mg/kg/injection, schedule: Q01DX008 (ip), vehicle: distilled water + Tween-80, higher = longer survival)?
The T/C was 118 % of control.

What about the T/C (endpoint: median survival time, dose: 20.0 mg/kg/injection, schedule: Q01DX008 (ip), vehicle: distilled water + Tween-80, higher = longer survival) of the same molecule?
Its T/C is 110 % of control.

And the T/C (endpoint: median survival time, dose: 30.0 mg/kg/injection, schedule: Q01DX008 (ip), vehicle: distilled water + Tween-80, higher = longer survival)?
The T/C was 124 % of control.

With `CC(=O)O[C@H]1C(=O)[C@@]2(C)[C@H]([C@H](OC(=O)c3ccccc3)[C@]3(O)C[C@H](OC(=O)[C@H](O)[C@@H](NC(=O)c4ccccc4)c4ccccc4)C(C)=C1C3(C)C)[C@]1(OC(C)=O)CO[C@@H]1C[C@@H]2O` as the molecule, how does the T/C (endpoint: median survival time, dose: 1.32 mg/kg/injection, schedule: Q01DX009 (ip), vehicle: Klucel (hydroxypropylcellulose) (HPC), higher = longer survival) read?
The T/C was 91 % of control.

And the T/C (endpoint: median survival time, dose: 1.32 mg/kg/injection, schedule: Q01DX009 (ip), vehicle: other, higher = longer survival)?
Its T/C is 100 % of control.

And the T/C (endpoint: median survival time, dose: 1.98 mg/kg/injection, schedule: Q01DX009 (ip), vehicle: Klucel (hydroxypropylcellulose) (HPC), higher = longer survival)?
Its T/C is 95 % of control.

What about the T/C (endpoint: median survival time, dose: 1.98 mg/kg/injection, schedule: Q01DX009 (ip), vehicle: other, higher = longer survival) of the same molecule?
The T/C was 88 % of control.

And the T/C (endpoint: median survival time, dose: 2.96 mg/kg/injection, schedule: Q01DX009 (ip), vehicle: Klucel (hydroxypropylcellulose) (HPC), higher = longer survival)?
Its T/C is 116 % of control.

What about the T/C (endpoint: median survival time, dose: 2.96 mg/kg/injection, schedule: Q01DX009 (ip), vehicle: other, higher = longer survival) of the same molecule?
The T/C was 88 % of control.

And the T/C (endpoint: median survival time, dose: 4.0 mg/kg/injection, schedule: Q01DX009 (ip), vehicle: Klucel (hydroxypropylcellulose) (HPC), higher = longer survival)?
The T/C was 93 % of control.

What about the T/C (endpoint: median survival time, dose: 4.44 mg/kg/injection, schedule: Q01DX009 (ip), vehicle: other, higher = longer survival) of the same molecule?
Its T/C is 123 % of control.

And the T/C (endpoint: median survival time, dose: 6.0 mg/kg/injection, schedule: Q01DX009 (ip), vehicle: Klucel (hydroxypropylcellulose) (HPC), higher = longer survival)?
The T/C was 97 % of control.

And the T/C (endpoint: median survival time, dose: 6.67 mg/kg/injection, schedule: Q01DX009 (ip), vehicle: Klucel (hydroxypropylcellulose) (HPC), higher = longer survival)?
Its T/C is 117 % of control.

What about the T/C (endpoint: median survival time, dose: 9.0 mg/kg/injection, schedule: Q01DX009 (ip), vehicle: Klucel (hydroxypropylcellulose) (HPC), higher = longer survival) of the same molecule?
The T/C was 93 % of control.

And the T/C (endpoint: median survival time, dose: 11.0 mg/kg/injection, schedule: Q04DX003 (ip), vehicle: Klucel (hydroxypropylcellulose) (HPC), higher = longer survival)?
Its T/C is 102 % of control.

And the T/C (endpoint: median survival time, dose: 13.0 mg/kg/injection, schedule: Q01DX001 (ip), vehicle: Klucel (hydroxypropylcellulose) (HPC), higher = longer survival)?
Its T/C is 97 % of control.

What about the T/C (endpoint: median survival time, dose: 16.0 mg/kg/injection, schedule: Q04DX003 (ip), vehicle: Klucel (hydroxypropylcellulose) (HPC), higher = longer survival) of the same molecule?
Its T/C is 91 % of control.

What about the T/C (endpoint: median survival time, dose: 20.0 mg/kg/injection, schedule: Q01DX001 (ip), vehicle: Klucel (hydroxypropylcellulose) (HPC), higher = longer survival) of the same molecule?
The T/C was 122 % of control.

What about the T/C (endpoint: median survival time, dose: 24.0 mg/kg/injection, schedule: Q04DX003 (ip), vehicle: Klucel (hydroxypropylcellulose) (HPC), higher = longer survival) of the same molecule?
Its T/C is 93 % of control.

What about the T/C (endpoint: median survival time, dose: 30.0 mg/kg/injection, schedule: Q01DX001 (ip), vehicle: Klucel (hydroxypropylcellulose) (HPC), higher = longer survival) of the same molecule?
Its T/C is 106 % of control.

With `CN1c2c(nc(N)[nH]c2=O)NCC1CCNc1ccc(C(=O)NC(CCC(=O)O)C(=O)O)cc1` (stereo not given) as the molecule, how does the T/C (endpoint: median survival time, dose: 600.0 mg/kg/injection, schedule: Q04DX003 (ip), vehicle: saline, higher = longer survival) read?
Its T/C is 118 % of control and 123 % of control.

And the T/C (endpoint: median survival time, dose: 800.0 mg/kg/injection, schedule: Q01DX001 (ip), vehicle: saline, higher = longer survival)?
The T/C was 108 % of control.

And the T/C (endpoint: median survival time, dose: 800.0 mg/kg/injection, schedule: Q04DX003 (ip), vehicle: saline, higher = longer survival)?
Its T/C is 113 % of control.

And the T/C (endpoint: median survival time, dose: 900.0 mg/kg/injection, schedule: Q04DX003 (ip), vehicle: saline, higher = longer survival)?
The T/C was 159 % of control.

And the T/C (endpoint: median survival time, dose: 1200.0 mg/kg/injection, schedule: Q01DX001 (ip), vehicle: saline, higher = longer survival)?
Its T/C is 119 % of control and 121 % of control.

And the T/C (endpoint: median survival time, dose: 1800.0 mg/kg/injection, schedule: Q01DX001 (ip), vehicle: saline, higher = longer survival)?
Its T/C is 121 % of control.

What about the T/C (endpoint: median survival time, dose: 2400.0 mg/kg/injection, schedule: Q01DX001 (ip), vehicle: saline, higher = longer survival) of the same molecule?
Its T/C is 121 % of control.

With `CS(=O)(=O)OCCCNCCCOS(C)(=O)=O` as the molecule, how does the T/C [1] read?
The T/C was 106 % of control.

And the T/C (endpoint: median survival time, dose: 10.0 mg/kg/injection, schedule: Q01DX009 (ip), vehicle: saline, higher = longer survival)?
The T/C was 110 % of control.

What about the T/C (endpoint: median survival time, dose: 20.0 mg/kg/injection, schedule: Q01DX009 (ip), vehicle: saline, higher = longer survival) of the same molecule?
The T/C was 92 % of control.

With `O=c1[nH]cc(F)c(=O)[nH]1` as the molecule, how does the T/C [1] read?
Its T/C is 77 % of control.

What about the T/C (endpoint: median survival time, dose: 8.4 mg/kg/injection, schedule: Q01DX009 (ip), vehicle: saline, higher = longer survival) of the same molecule?
Its T/C is 100 % of control.

What about the T/C (endpoint: median survival time, dose: 10.0 mg/kg/injection, schedule: Q01DX009 (ip), vehicle: Klucel (hydroxypropylcellulose) (HPC), higher = longer survival) of the same molecule?
Its T/C is 100 % of control.

What about the T/C (endpoint: median survival time, dose: 10.0 mg/kg/injection, schedule: Q01DX009 (ip), vehicle: saline with Tween-80, higher = longer survival) of the same molecule?
The T/C was 98 % of control and 101 % of control.

And the T/C (endpoint: median survival time, dose: 14.0 mg/kg/injection, schedule: Q01DX009 (ip), vehicle: saline, higher = longer survival)?
The T/C was 97 % of control.

What about the T/C (endpoint: median survival time, dose: 20.0 mg/kg/injection, schedule: Q01DX009 (ip), vehicle: Klucel (hydroxypropylcellulose) (HPC), higher = longer survival) of the same molecule?
Its T/C is 100 % of control.

What about the T/C (endpoint: median survival time, dose: 20.0 mg/kg/injection, schedule: Q01DX009 (ip), vehicle: saline with Tween-80, higher = longer survival) of the same molecule?
Its T/C is 111 % of control.

What about the T/C (endpoint: median survival time, dose: 23.0 mg/kg/injection, schedule: Q01DX009 (ip), vehicle: saline, higher = longer survival) of the same molecule?
Its T/C is 107 % of control.

What about the T/C (endpoint: median survival time, dose: 23.0 mg/kg/injection, schedule: Q04DX003 (ip), vehicle: saline, higher = longer survival) of the same molecule?
Its T/C is 100 % of control.

And the T/C (endpoint: median survival time, dose: 39.0 mg/kg/injection, schedule: Q04DX003 (ip), vehicle: saline, higher = longer survival)?
The T/C was 97 % of control.

What about the T/C (endpoint: median survival time, dose: 40.0 mg/kg/injection, schedule: Q01DX009 (ip), vehicle: saline with Tween-80, higher = longer survival) of the same molecule?
Its T/C is 98 % of control and 107 % of control.

And the T/C (endpoint: median survival time, dose: 50.0 mg/kg/injection, schedule: Q04DX003 (ip), vehicle: saline, higher = longer survival)?
Its T/C is 113 % of control.

And the T/C (endpoint: median survival time, dose: 65.0 mg/kg/injection, schedule: Q04DX003 (ip), vehicle: saline, higher = longer survival)?
The T/C was 86 % of control.

And the T/C (endpoint: median survival time, dose: 108.0 mg/kg/injection, schedule: Q04DX003 (ip), vehicle: saline, higher = longer survival)?
Its T/C is 107 % of control.

What about the T/C (endpoint: median tumor weight (est.), dose: 10.0 mg/kg/injection, schedule: Q01DX009 (ip), vehicle: Klucel (hydroxypropylcellulose) (HPC), higher = larger tumour) of the same molecule?
Its T/C is 97 % of control and 84 % of control.

What about the T/C (endpoint: median tumor weight (est.), dose: 10.0 mg/kg/injection, schedule: Q01DX009 (ip), vehicle: saline with Tween-80, higher = larger tumour) of the same molecule?
Its T/C is 65 % of control.

What about the T/C (endpoint: median tumor weight (est.), dose: 20.0 mg/kg/injection, schedule: Q01DX009 (ip), vehicle: saline with Tween-80, higher = larger tumour) of the same molecule?
Its T/C is 56 % of control.

And the T/C (endpoint: median tumor weight (est.), dose: 40.0 mg/kg/injection, schedule: Q01DX009 (ip), vehicle: Klucel (hydroxypropylcellulose) (HPC), higher = larger tumour)?
Its T/C is 75 % of control.

What about the T/C (endpoint: median tumor weight (est.), dose: 40.0 mg/kg/injection, schedule: Q01DX009 (ip), vehicle: saline with Tween-80, higher = larger tumour) of the same molecule?
Its T/C is 39 % of control.

How did the T/C (endpoint: median survival time, dose: 2.9 mg/kg/injection, schedule: Q01DX009 (ip), vehicle: saline, higher = longer survival) turn out when `COc1cccc2c1C(=O)c1c(O)c3c(c(O)c1C2=O)CC(O)(C(=O)CO)CC3OC1CC(N)C(O)C(C)O1` (stereo not given) was run?
The T/C was 103 % of control.

What about the T/C (endpoint: median survival time, dose: 5.8 mg/kg/injection, schedule: Q01DX009 (ip), vehicle: saline, higher = longer survival) of the same molecule?
Its T/C is 107 % of control.
